Measured values from the METLIN SMRT retention time set (Domingo-Almenara et al. 2019).

Test: gradient 5% acetonitrile 3 min, to 50% in 2 min, to 85% in 15 min, held 3 min, 100 µL/min
Conditions: column: Zorbax Extend-C18 2.1 x 50 mm; eluents: water / acetonitrile, 0.1% formic acid
Outline: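 Retention times of pure standards were taken from adduct peaks that were selected by computer and manually inspected. Over 3 months, mixtures of ~100 molecules were run by HPLC–quadrupole time-of-flight mass spectrometry in positive and negative ionization mode. The Zorbax Extend-C18 column (2.1 × 50 mm, 1.8 μm) ran at 100 μL/min in water and acetonitrile, each containing 0.1% formic acid, with 40 μL dead volume and 900 μL dwell volume.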

Structure (SMILES)	RP-LC retention time [s]
Cc1cc(NC(=O)CN2CCc3[nH]c4c(C)c(C)ccc4c(=O)c3C2)ccc1F	626
CCNc1nc(C)cc(N2CCN(C(=O)Nc3ccc(Cl)cc3)CC2)n1	682
O=C(Nc1cccc(Cl)c1)C1CCN(C(=O)C2Sc3ccccc3NC2=O)CC1 (stereo unspecified)	837
Cn1c(C(=O)NCCN2CCOCC2)cc2c(=O)oc3ccccc3c21	603
O=C(NCC1CC1)c1c(O)c2sccc2n(Cc2ccccc2)c1=O	766
Cc1ccc(CC(=O)Nc2c(C(=O)N3CCN(c4ccccn4)CC3)oc3ccccc23)cc1	716
CC(C)(C)NC(=O)C1CCN(S(C)(=O)=O)c2cc(Cl)ccc2O1 (stereo unspecified)	898
O=C1C=C(NCCc2ccccc2)c2ccccc2C1=O	736
CCC(C)NC(=O)Cn1c(=O)n(CC(C)C)c(=O)c2nscc21 (stereo unspecified)	735
CCS(=O)(=O)N1CC(=O)N(c2ccc(Cl)cc2C)C(C)(C(=O)NC2CCCCC2)C1 (stereo unspecified)	946
CCN1CCN(C(=O)Cc2csc(-n3nc(C)c(Cl)c3C)n2)CC1	691
O=C(c1cnc2sc3c(n2c1=O)CCC3)N1CCN(c2ncccn2)CC1	658
CCC/C(C)=C/c1ccc(CC)cn1	708
CCn1c(=O)n(CC(=O)N2CCN(C)CC2)c(=O)c2cnc(-c3ccc(Cl)cc3)nc21	696
O=C(NC1CCCCC1)c1csc(-c2ccc(N3CCOCC3)nc2)n1	916
Cc1ccc(C)c(NC(=O)Cn2c(=O)n(-c3ccc(F)cc3)c(=O)c3c2cc(C)n3C)c1	931
CCc1ccc(-c2nc(C3CC(=O)N(c4ccc(F)cc4)C3)no2)cc1 (stereo unspecified)	1110
O=C(Nc1ccc(-n2cnnn2)cc1)c1ccc(OCc2nc(C3CC3)cs2)cc1	823
O=c1[nH]c(-c2cccc(O)c2)nc2sc3c(c12)CCCC3	830
COc1cccc(NC(=O)c2c(O)c3cccnc3n(-c3ccc(F)cc3)c2=O)c1	1200
CCn1c(CCc2ccccc2NS(=O)(=O)c2ccc(F)cc2F)nc2ccccc21	755
CC1=NS(=O)(=O)N(C)C=C1C(=O)OCc1cccc(Cl)c1	968
CC1CCC(NC(=O)CN2C(=O)CCCc3cc(S(=O)(=O)N4CCC(C)CC4)ccc32)CC1 (stereo unspecified)	1040

Structure (SMILES)	RP-LC retention time [s]
Cc1cc(N2CCN(C)CC2)nc2ccc(NC(=O)Nc3cccc(Cl)c3)cc12	590
COc1ccc(C2CCCN2C(=O)c2c(C)noc2C)cc1 (stereo unspecified)	746
CC(C)C(=O)N1CC(c2noc(C3CCCN3CC3CC3)n2)C1 (stereo unspecified)	579
Fc1ccc(-c2nc(-c3cn(-c4cccc(F)c4)nn3)no2)cc1	1080
CCC(C)NC(=O)C1CCN(Cc2cc3ccccc3n2Cc2cccc(Cl)c2)CC1 (stereo unspecified)	796
CC(C)CN1C(=O)CCc2cc(NS(=O)(=O)c3cccc(F)c3)ccc21	898
O=C(c1nnc(-c2ccc(S(=O)(=O)N3CCOCC3)cc2)o1)N1CCCCCC1	862
Cc1ccc(-c2nc(-c3ccc(S(=O)(=O)N4CCC(C(=O)N5CCCC5)CC4)cc3)no2)cc1F	1110
COc1cccc(N2CCN(c3ccnc(SCC(=O)NCc4ccccc4Cl)n3)CC2)c1	788
Cc1ccccc1CNC(=O)C1CCN(S(=O)(=O)c2ccc3c(c2)NC(=O)CO3)CC1	777
O=C(NC1CC1)c1c2c(nc3ccc(F)cc13)CCC2	650
Cc1ccccc1CN1CC(=O)NCC12CCCC2	573
CCNC(=O)NCc1nc(-c2ccc(Cl)cc2)no1	752
Cc1[nH]c(C(=O)N2CCC(CC(=O)NCCCOC(C)C)CC2)c(C)c1C	715
Cc1ccc(C)c(-c2cc(C(N)=O)[nH]n2)c1	695
Cc1cccc(C(=O)N2C(C(=O)NCC3CCCO3)COC23CCN(C(=O)C(C)(C)C)CC3)c1 (stereo unspecified)	684
Oc1ccc2c3c1O[C@H]1c4oc5ccccc5c4C[C@@]4(O)C(C2)N(CC2CC2)CCC314 (stereo partly specified)	702
Cc1ccc(CNC(=O)CC2CCN(C(=O)c3[nH]c(C)c(C(=O)OC(C)C)c3C)CC2)cc1	853
O=C(NCCc1c[nH]c2ccccc12)c1cc(-c2cccnc2)nc2ccccc12	741
CCCCOc1ccc(NC(=O)Nc2ccc(N3CCCS3(=O)=O)cc2)cc1	851
Cc1ccc(NC(=O)Cn2c(C)nc3onc(C)c3c2=O)cc1F	735
COCC(=O)Oc1c(Sc2ccc(C)cc2)c(C)nn1-c1ccccc1	854
CC1(C(N)=O)CC(c2ccccc2)=NO1 (stereo unspecified)	828

Structure (SMILES)	RP-LC retention time [s]
COC(=O)c1ccccc1NC(=O)CN1C(=O)CN=C(c2ccccc2)c2ccccc21	958
COCCNC(=O)C1CCN(c2nc3ccc(-c4cccnc4)nc3s2)CC1	578
COc1ccc(N2CCN(c3nc(C(=O)NC4CC4)cs3)CC2)cc1	832
Cc1nc([N+](=O)[O-])c(N2CCCC2)n1Cc1ccccc1	817
COc1ccc(-c2nc3n(c2C(=O)Nc2nc(-c4ccc(C)cc4)cs2)CCS3(=O)=O)cc1	1060
COc1cc(CNC(=O)c2ccc3c(c2)N(C)C(=O)C2CCCCN32)cc(OC)c1OC (stereo unspecified)	790
COCC(C)(O)CNC(=O)c1ccsc1 (stereo unspecified)	581
O=S(=O)(NC1CCCCCC1)c1ccc(-c2cc(C(F)(F)F)on2)o1	1170
Cc1ccccc1NC(=O)CC1COc2ccccc2NC1=O (stereo unspecified)	700
CSc1nc(N2CCCC2)c2cnn(CCNC(=O)c3cc(-c4ccco4)on3)c2n1	849
Cc1cccn2c(Nc3ccc4c(c3)OCCO4)c(-c3ccc(N4CCOCC4)cc3)nc12	683
O=C(Cc1nnc(-c2ccc3ncccc3c2)o1)Nc1cc(F)cc(F)c1	784
Cn1cc(SCC(=O)Nc2cccc(F)c2)c2ccccc21	896
COc1ccc2c(c1)C1(CCN(C(=O)C(C)C)C1)C(=O)N2C (stereo unspecified)	701
Cc1nc(-c2csc(S(=O)(=O)N3CCC(C(=O)N4CCCC4)CC3)c2)no1	760
COc1ccc(OC)c(NC(=O)N2CCc3c(c(C(=O)N4CCOCC4)nn3C)C2)c1	648
Cc1ccccc1-c1noc(C2CCCN2C(=O)Nc2ccc(F)cc2F)n1 (stereo unspecified)	993
O=C(c1cccc(Nc2nc3ccccc3n3nnnc23)c1)N1CCN(c2ccccn2)CC1	655
CCOC(=O)c1noc2nc(C)nc(Nc3ccc(F)cc3)c12	962
Cc1ccc(-c2nnc(Cc3nc(-c4cccc(Cl)c4)no3)o2)cc1F	1170
O=C(CSCc1ccccc1)Nc1c(-c2ccc(F)cc2)nc2ccccn12	714
COc1cccc(NC(=O)CN2C(=O)CC(c3cccs3)=Nc3ccccc32)c1	898
CCCn1cc(CCNS(=O)(=O)c2cc(C)c(C)cc2C)c2cccnc21	978

Structure (SMILES)	RP-LC retention time [s]
CC(=O)Nc1ccc(S(=O)(=O)N=S(C)C)cc1	608
COc1cccc(NC(=O)c2cc(C)n3nccc3n2)c1	874
COc1ccc(Cl)cc1NC(=O)N1CCN(CCn2c(C(C)C)nc3cccnc32)CC1	649
COc1cc(OC)cc(-c2nc(-c3cccc(-c4ccn[nH]4)c3)no2)c1	1010
CN(C)c1nc2ncn3c(=O)n(CC(=O)Nc4cc(F)cc(F)c4)nc3c2s1	741
CCNC(=O)CN1CCN(Cc2ccccc2F)C1=O	658
Cc1cc(CN2CCc3nn(Cc4ccccc4)c(=O)n3CC2)n(C)n1	611
Cc1ccn2cc(C(=O)N3CCN(c4cccc(C)c4C)CC3)nc2c1	769
CCOc1ccc(NC(=O)C2CC(=O)N(c3n[nH]c4cccc(F)c34)C2)cc1 (stereo unspecified)	744
CN(CC1CCOC1)C(=O)Nc1cccc(Cl)c1F (stereo unspecified)	733
Cc1ccc(N2CCC(NC(=O)Nc3ccccc3)C2=O)cc1C (stereo unspecified)	870
COc1ccc(C(=O)N2CCc3ccc(C(=O)NC4CCN(C)CC4)cc32)cc1	618
NC1CC1c1ccccc1 (stereo unspecified)	621
Cc1nnc(C2CC3(CCN(CCCO)CC3)CN2CCc2ccccc2)o1 (stereo unspecified)	572
CCOC(=O)Cc1csc(NS(=O)(=O)c2cn(C)nc2C)n1	592
CCOc1cc(CN2CCn3c(nn(CC4CC4)c3=O)C2)ccc1O	606
Cc1oc(-c2ccc(NC(=O)c3ccc(Cl)s3)cc2)nc1Cn1cccn1	980
Cc1ccc(Nc2c(-c3ccc(Cl)cc3)nc3ccc(Cl)cn23)cc1	1060
CCN1C(=O)c2cccnc2Sc2cc(NC(=O)C(C)C)ccc21	711
Cc1ccc(NC(=O)Cn2c(C(C)C)nc3c(c2=O)CN(Cc2ccccc2)CC3)cc1C	738
COc1ccc(C2Cn3nnc(-c4nc(-c5ccccc5)no4)c3CO2)cc1 (stereo unspecified)	1100
O=c1c(Nc2ccc(F)c(Cl)c2)nc2ccncc2n1Cc1ccccc1	831
